Results: patent publication US6054591A, “Lymph-absorbable aryl substituted imidazole derivatives” (Shionogi & Co., Ltd., priority 1996, dated 2000)
≈ marks a conversion by molar mass, not a printed value. Where two headings read alike, the source gives them in different places.

System: HIV (HTLV-IIIB strain)
Test: Infection inhibitory activity (anti-HIV activity, MTT assay in MT-4 cells)
Type: cell-based
Description: Infection inhibitory activity of the compound
The anti-HIV activity of the representative compounds prepared in the above examples was assayed by the following procedures.
Human T cell line MOLT-4 clone 8 persistently infected by HIV (HTLV-IIIB strain) was cultured in an RPMI-1640 medium supplemented with 10% fetal calf serum, the culture supernatant was filtered, the titer of virus was determined on the filtrate, and the culture supernatant was stored at -80° C. On the other hand, the test compound was diluted with the above culture medium to predetermined concentration range 1 μg/ml to 1 ng/ml and distributed in 50 μl aliquots into a 96-well microtiter plate. Then, a suspension of MT-4 cells was added in 100 μl aliquots (3.5×10^4 cells per well) and then 50 μl (60 pfu (plaque forming units)) per well of the above HIV-containing supernatant diluted with the above culture medium each was added.
The plate was incubated in a CO2 incubator at 37° C. for 5 days. Then, 30 μl/well of 3-(4,5-dimethylthiazol-2-yl)-2,5-[…] (MTT) and 5 mg/ml PBS was added and the incubation was further continued for 1 hour. The surviving cells reducing MTT yield precipitation of formazan. Therefore, 150 μl portions of the culture supernatant were removed from all wells and, instead, 150 μl of a solution (10% Triton X-100 and 0.4% (v/v) HCl added isopropanol) was added. The plate was shaken on a plate mixer to dissolve the formazan. The OD of formazan was measured with a microreader at 560 nm and 690 nm (reference wavelength) and the result was compared with that of control. The cytotoxic effect for the virus was expressed as EC50.

[1] = Human immunodeficiency virus 1, MT4, 120 h, MT-4 cells, HIV HTLV-IIIB, 5 days at 37° C., MTT, read-out: EC50
[2] = Human immunodeficiency virus 1, IIIB, MT4, 120 h

SMILES	EC50 [1] [ng/mL]	EC50 [2] [ng/mL]
Cc1cc(C)cc(Sc2c(C(C)C)nc(C)n2COCCO)c1 [Compound 1, 5-(3,5-dimethylphenylthio)-4-isopropyl-1-(2-hydroxyethoxymethyl)-2-methyl-1H-imidazole]	8 (≈ 0.0239 µM)	–
Cc1nc(C(C)C)c(Sc2cc(Cl)cc(Cl)c2)n1COCCO [Compound 8, 5-(3,5-Dichlorophenylthio)-4-isopropyl-1-[2-hydroxyethoxymethyl]-2-methyl-1H-imidazole]	5 (≈ 0.0133 µM)	–
Cc1nc(C(C)C)c(Sc2cc(Cl)cc(Cl)c2)n1COCCOC1=CCCCCCC1 [Compound 11, 1-[2-(Cycloocten-1-yloxy)ethoxymethyl]-5-(3,5-dichlorophenylthio)-4-isopropyl-2-methyl-1H-imidazole]	8 (≈ 0.0165 µM)	–
CC(C)c1nc(CO)n(C)c1Sc1cc(Cl)cc(Cl)c1 [Compound 14, 5-(3,5-dichlorophenylthio)-4-isopropyl-1-methyl-2-hydroxymethyl-1H-imidazole]	16 (≈ 0.0483 µM)	–
CCn1c(CO)nc(C(C)C)c1Sc1cc(Cl)cc(Cl)c1 [Compound 19, 2-hydroxymethyl-5-(3,5-dichlorophenylthio)-4-isopropyl-1-ethyl-1H-imidazole]	4 (≈ 0.0116 µM)	–
CCn1c(CCO)nc(C(C)C)c1Sc1cc(Cl)cc(Cl)c1 [Compound 54]	2 (≈ 0.00557 µM)	–
CCn1c(CCOC2=CCCCCCC2)nc(C(C)C)c1Sc1cc(Cl)cc(Cl)c1 [Compound 59]	2.5 to 5 (≈ 0.00535 to 0.0107 µM)	–
Cc1cc(C)cc(Sc2c(C(C)C)nc(C)n2COCCOC(=O)CCC(=O)O)c1 [Compound 68, Mono-{2-[5-(3,5-dimethylphenylthio)-4-isopropyl-2-methyl-imidazol-1-yl]methoxyethyl}succinate]	8	–
Cc1nc(C(C)C)c(Sc2cc(Cl)cc(Cl)c2)n1COCCOC(=O)CCCCCCCCCCCCCCC(=O)O [Compound 75, Mono-{2-[5-(3,5-dichlorophenylthio)-4-isopropyl-2-methyl-imidazol-1-ylmethoxy]ethyl} hexadecanedioate]	8 (≈ 0.0124 µM)	–
Cc1nc(C(C)C)c(Sc2cc(Cl)cc(Cl)c2)n1COCCOC(=O)CCC(=O)O [Compound 76, Mono-{2-[5-(3,5-dichlorophenylthio)-4-isopropyl-2-methyl-imidazol-1-ylmethoxy]ethyl succinate]	8	–
Cc1nc(C(C)C)c(Sc2cc(Cl)cc(Cl)c2)n1COCCOCOC(=O)C(C)(C)C [Compound 77, 2-[5-(3,5-Dichlorophenylthio)-4-isopropyl-2-methyl-imidazol-1-ylmethoxy]ethyl 2,2-dimethylpropionyloxymethyl ether]	8 (≈ 0.0163 µM)	–
CCn1c(COC(=O)NC(C)=O)nc(C(C)C)c1Sc1cc(Cl)cc(Cl)c1 [Compound 80, 5-(3,5-Dichlorophenylthio)-1-ethyl-4-isopropyl-1H-imidazol-2-ylmethyl acetylcarbamate]	1 (≈ 0.00232 µM)	–
CCCCCCCC(=O)NC(=O)OCc1nc(C(C)C)c(Sc2cc(Cl)cc(Cl)c2)n1CC [Compound 82, 5-(3,5-Dichlorophenylthio)-1-ethyl-4-isopropyl-1H-imidazol-2-ylmethyl octanoylcarbamate]	8 to 16 (≈ 0.0155 to 0.0311 µM)	–
CCn1c(COC(=O)NC(=O)c2ccc(Cl)cc2)nc(C(C)C)c1Sc1cc(Cl)cc(Cl)c1 [Compound 86, 5-(3,5-Dichlorophenylthio)-1-ethyl-4-isopropyl-1H-imidazol-2-ylmethyl 4-chlorobenzoylcarbamate]	8 (≈ 0.0152 µM)	–
CCn1c(COC(=O)NC(=O)c2cc(Cl)cc(Cl)c2)nc(C(C)C)c1Sc1cc(Cl)cc(Cl)c1 [Compound 87, 5-(3,5-Dichlorophenylthio)-1-ethyl-4-isopropyl-1H-imidazol-2-ylmethyl 3,5-dichlorobenzoylcarbamate]	8 (≈ 0.0143 µM)	–
CC(=O)NC(=O)OCc1nc(C(C)C)c(Sc2cc(Cl)cc(Cl)c2)n1Cc1ccncc1 [Compound 90, 5-(3,5-Dichlorophenylthio)-4-isopropyl-1-(4-pyridylmethyl)-1H-imidazol-2-ylmethyl acetylcarbamate]	< 8	–
CCCCCCCC(=O)NC(=O)OCc1nc(C(C)C)c(Sc2cc(Cl)cc(Cl)c2)n1Cc1ccncc1 [Compound 91, 5-(3,5-Dichlorophenylthio)-4-isopropyl-1-(4-pyridylmethyl)-1H-imidazol-2-ylmethyl octanoylcarbamate]	8 to 16 (≈ 0.0139 to 0.0277 µM)	–
CCCCCCCCCC(=O)NC(=O)OCc1nc(C(C)C)c(Sc2cc(Cl)cc(Cl)c2)n1Cc1ccncc1 [Compound 92, 5-(3,5-Dichlorophenylthio)-4-isopropyl-1-(4-pyridylmethyl)-1H-imidazol-2-ylmethyl decanoylcarbamate]	< 8	–
CC(C)c1nc(COC(=O)NC(=O)Oc2ccc(-c3ccccc3)cc2)n(Cc2ccncc2)c1Sc1cc(Cl)cc(Cl)c1 [Compound 103, 5-(3,5-Dichlorophenylthio)-4-isopropyl-1-(4-pyridylmethyl)-1H-imidazol-2-ylmethyl 4-biphenyl iminodicaboxylate]	–	8 (≈ 0.0124 µM)
CC(C)c1nc(COC(=O)NC(=O)Oc2cccc3ccccc23)n(Cc2ccncc2)c1Sc1cc(Cl)cc(Cl)c1 [Compound 104, 5-(3,5-Dichlorophenylthio)-4-isopropyl-1-(4-pyridylmethyl)-1H-imidazol-2-ylmethyl 1-naphthyl iminodicaboxylate]	–	< 8
CCCCCCCC(=O)OCc1nc(C(C)C)c(Sc2cc(Cl)cc(Cl)c2)n1CC [Compound 108, 5-(3,5-Dichlorophenylthio)-1-ethyl-4-isopropyl-1H-imidazol-2-ylmethyl octanoate]	8 (≈ 0.017 µM)	–
CCCCCCCCCC(=O)OCc1nc(C(C)C)c(Sc2cc(Cl)cc(Cl)c2)n1CC [Compound 109, 5-(3,5-Dichlorophenylthio)-1-ethyl-4-isopropyl-1H-imidazol-2-ylmethyl decanoate]	8 to 16 (≈ 0.016 to 0.032 µM)	–
CC(C)c1nc(COC(N)=O)n(Cc2ccncc2)c1Sc1cc(Cl)cc(Cl)c1 [Compound 111, 5-(3,5-dichlorophenylthio)-4-isopropyl-1-(4-pyridylmethyl)-1H-imidazol-2-ylmethyl carbamate]	0.9 (≈ 0.00199 µM)	–
CCCCN(CCCC)CNC(=O)OCc1nc(C(C)C)c(Sc2cc(Cl)cc(Cl)c2)n1Cc1ccncc1 [Compound 112, 5-(3,5-Dichlorophenylthio)-4-isopropyl-1-(4-pyridylmethyl)-1H-imidazol-2-ylmethyl di-n-butylaminomethylcarbamate]	3 (≈ 0.00506 µM)	–
CC(C)c1nc(COC(=O)NCN2CCOCC2)n(Cc2ccncc2)c1Sc1cc(Cl)cc(Cl)c1 [Compound 113, 5-(3,5-Dichlorophenylthio)-4-isopropyl-1-(4-pyridylmethyl)-1H-imidazol-2-ylmethyl morpholinomethylcarbamate]	3 to 5 (≈ 0.00545 to 0.00908 µM)	–
CC(C)c1nc(COC(=O)NCN(Cc2ccccc2)Cc2ccccc2)n(Cc2ccncc2)c1Sc1cc(Cl)cc(Cl)c1 [Compound 114, 5-(3,5-Dichlorophenylthio)-4-isopropyl-1-(4-pyridylmethyl)-1H-imidazol-2-ylmethyl dibenzylaminomethylcarbamate]	3 to 5 (≈ 0.00454 to 0.00757 µM)	–
